Where only a bound is given, the exact number is not on record here.

Assay [1] is described as follows: Cytotoxicity against human Hep3B cells assessed as cell growth inhibition by MTT assay. Type of assay: functional, cell-based, Hep 3B2. On the technique in general: Tetrazolium assays rely on reduction of a dye to a coloured formazan, in cell work by metabolically active cells.
The nature of assay [2]: Cytotoxicity against human A549 cells assessed as cell growth inhibition by MTT assay. Type of assay: functional, cell-based.

With `CC1(C)OC[C@@]2(C[C@@]34CC[C@H]5C(C)(C)C(=O)CC[C@]5(C)[C@H]3CC[C@H]2C4)O1`, the IC50 is 8.15 µM in assay [1] and above 100 µM in assay [2].
In the case of `CC1(C)[C@H](O)CC[C@]2(C)[C@@H]1CC[C@@]13CC[C@@H](C[C@@H]12)[C@](O)(CO)C3`, the IC50 in assay [1] and in assay [2] was above 100 µM each time.
Take `CC1(C)CC[C@]2(C)CC[C@]3(C)C(=CC=C4[C@@]5(C)C[C@@H](O)[C@H](O)C(C)(C)[C@@H]5CC[C@]43C)[C@@H]2C1`: the IC50 in assay [1] worked out at 12.5 µM; in assay [2], 11.9 µM.
For `CCCCCCCCCCCCCCCC(=O)O[C@@]12C[C@@H](C)[C@@]3(O)[C@@H](C=C(C=O)C[C@]4(O)C(=O)C(C)=C[C@@H]34)[C@@H]1C2(C)C`, in that order: 12 µM and 9.38 µM.
Taken in the same sequence, the figures for `OCC(O)C(O)C(O)c1cncc(-c2ccco2)n1` (stereo not drawn) were above 100 µM and above 100 µM.
For `C=C1C[C@@]23CC[C@@H]4C(C)(C)[C@H](O)CC[C@@]4(C)[C@H]2C[C@@H]1CC3=O`, in that order: above 100 µM and above 100 µM.
As to `CC1(C)C(=O)CC[C@]2(C)[C@@H]1CC[C@]13C[C@H](CO)[C@@H](CC[C@H]12)C3`, the IC50 in assay [1] and in assay [2] was above 100 µM each time.
As to `O=c1[nH]cc(F)c(=O)[nH]1` [FLUOROURACIL], the IC50 in assay [1] is 9.36 µM; in assay [2], 16.6 µM.
Regarding `C=C(C)[C@@H]1CC[C@]2(C)CC[C@]3(C)[C@H](CC[C@@H]4[C@@]5(C)CC[C@H](OC(C)=O)C(C)(C)[C@@H]5CC[C@]43C)[C@@H]12` [LUPENYL ACETATE], the IC50 in assay [1] is 18.7 µM; in assay [2], 29.8 µM.

The IC50 is the concentration needed to halve the response being measured.

The record behind these values is ChEMBL document CHEMBL3871296, “Phytochemical and cytotoxic studies on the roots of Euphorbia fischeriana” (Bioorg Med Chem Lett, 2017).
